From patent US20240252638A1, “INDUCER FOR REPROGRAMMING T CELL INTO NK-LIKE CELL AND APPLICATION OF INDUCER” (ZHAOTAI IMMUGENE BIOMEDICINE (HONG KONG) LIMITED, priority 2021, published 2024)

Key:
[1] = system: primary T cells in human umbilical cord blood; experiment: Detection of phenotypes of reprogrammed T cells through flow cytometry (NKp30/NKp46 expression); assay type: cell-based; conditions: for expression rate of NKp30 in CD4 T cells: drug concentrations of Table 1 (DAC 0.2 μM, GSK-3484862 2 μM, Mocetinostat 0.2 μM), DMSO group approximately 7.74%; for expression rate of NKp46 in CD8 T cells: DMSO group approximately 0.26%; for expression rate of NKp30 in CD8 T cells: DMSO group approximately 12.2%; for expression of NKp46 and NKp30 in CD4 and CD8 among induced T cells compared with DMSO: induced by a single inhibitor until Day5; for expression of NKp46 and NKp30 in CD4 and CD8 among induced T cells compared with DMSO / induction of T cells to reprogram into NK-like cells: concentrations of Table 1; for induction of T cells to reprogram into NK-like cells: induced until Day5
Description: In this example, umbilical cord blood mononuclear cells (UCBMCs) were separated from the umbilical cord blood through Ficoll-hypaque (polysucrose-meglumine diatrizoate) density gradient centrifugation, 4×10^7 CD3 positive UCBMCs were taken and cultured overnight with a cell density of 2×10^6 cells/mL, remaining UCBMCs were frozen, and T cells were sorted by the Pan T cell isolation kit and cultured for a period of time to obtain ≥4×10^7 CD3 positive T cells with a viability rate of ≥70% and without contamination by exogenous microorganisms such as bacteria, fungi and mycoplasmas.
(1) T cells activated by TransAct for 36 h were taken and centrifuged at 300 g for 5 min, the T cells were resuspended with an IMDM+5% FBS+1% double antibody (a 100×penicillin-streptomycin mixed solution)+IL2 (300 U), and a T cell density was adjusted to (2−3)×10^5 cells/mL.
(2) Groups of small molecule inhibitor drugs were added to the resuspended T cells, respectively. Half of media were changed every day, and extra new drugs were added according to volumes obtained after the media were changed. A day when the drugs were initially added was denoted as Day0, and when the drugs continued to be added until Day5, the mixtures were centrifuged at 300 g for 5 min, and the media were changed. Then, the cells continued to be cultured with an IMDM+5% FBS+1% double antibody (a 100×penicillin-streptomycin mixed solution).
(1) 200 μL each of the T cells induced by DAC until Day6, the T cells induced by GSK-3484862 until Day 6, the T cells co-induced by DAC and Mocetinostat until Day6, the T cells co-induced by GSK-3484862 and Mocetinostat until Day6 and the untreated T cells were taken and centrifuged at 400 g for 4 min. After supernatant was discarded, 50 μL phosphate buffer (PBS) was added to resuspend the cells. Then, 0.5 μL each of CD3 PE-Cy7, CD4 APC-Cy7, CD8 FITC, NKp30 PE and NKp46 APC were added to each of the mixtures and incubated for 30 min at 4° C. in the dark, 500 μL PBS was added to dilute the antibody and centrifuged at 400 g for 4 min, supernatant was carefully discarded, and 300 μL PBS was added to resuspend the cells, transferred to a flow tube and loaded on a flow cytometer.
(2) Data analysis was performed by BD-flowcyto analysis software, and 10000 cells were collected in each tube. The appearance of a significant increase in NKp-30 and the appearance of an NKp46-positive cell population were used as signs of successful reprogramming, and a percentage of positive T cells was calculated.
In addition, the T cells induced by GSK-3484862 until Day5, the T cells induced by Tazemetostat until Day5, the T cells induced by GSK126 until Day5, the T cells co-induced by Tazemetostat and GSK-3484862 until Day5, the T cells co-induced by GSK-3484862 and GSK126 until Day5 and the untreated T cells were taken and subjected to the same operations, and phenotypes of the reprogrammed T cells were identified through flow cytometry. The results are shown in FIGS. 9A, 9B, 10A, 10B, 11A, 11B, 12A, 12B, 13A, 13B, 14A and 14B.

[2] = system: K562 cells (human chronic myeloid leukemia cells); experiment: In vitro killing detection of reprogrammed T cells (luciferase); assay type: cell-based; conditions: effector-target ratios 16:1 to 1:4, co-cultured 24 h, vs T cells treated by DMSO
Description: (1) The T cells induced by GSK-3484862, the T cells induced by DAC, the T cells induced by Mocetinostat, the T cells co-induced by GSK-3484862 and Mocetinostat, the T cells co-induced by DAC and Mocetinostat and the T cells treated by DMSO were mixed with 1×10^4 K562 cells (human chronic myeloid leukemia cells) according to different effector-target ratios (16:1, 8:1, 4:1, 2:1, 1:1, 1:2 and 1:4), respectively, and added to a 96-well cell culture plate. Three duplicate wells were set for each group, and a group with the addition of tumor cells alone was set as a positive control. After centrifugation at 250×g for 5 min, the cells were placed in a 5% CO2 incubator at 37° C. and co-cultured for 24 h.
(2) After 24 h, 100 μL/well luciferase substrate (1×) was added to the 96-well cell culture plate, and the cells were resuspended and uniformly mixed. RLU (Relative light units) were immediately measured by a multifunctional microplate reader for 0.1 s. A killing proportion calculation formula of a quantitative killing efficiency assessment method using a luciferase is as follows:
100%×(control well reading-experimental well reading)/control well reading (blank group (without the addition of the cells) reading may be ignored).
In addition, according to the same method, the T cells induced by GSK-3484862, the T cells induced by Tazemetostat, the T cells induced by GSK126, the T cells co-induced by GSK-3484862 and Tazemetostat and the T cells co-induced by GSK-3484862 and GSK-126 were separately used and the T cells treated by DMSO was used as a control to detect killing abilities of the reprogrammed T cells against K562 cells.

[3] = system: reprogrammed T cells co-cultured with K562; experiment: Secretion of cytokines IFN-γ and granzyme B by reprogrammed T cells co-cultured with K562 (ELISA); assay type: cell-based, human; conditions: co-cultured with K562 for 48 h, supernatant
Description: The T cells induced by DAC, the T cells induced by GSK-3484862, the T cells co-induced by DAC and Mocetinostat, the T cells co-induced by GSK-3484862 and Mocetinostat and the T cells treated by DMSO were co-cultured with human chronic myeloid leukemia cells K562 for 48 h, respectively, and expression levels of cytokines IFN-γ and a granzyme B in supernatant were detected through ELISA.

[4] = T cells induced until Day6, drug concentrations of Table 1

Nc1ncn([C@H]2C[C@H](O)[C@@H](CO)O2)c(=O)n1 [DAC, decitabine]
expression rate of NKp30 in CD4 T cells ([1]; T cells induced until Day6): approximately 83.2% | expression rate of NKp46 in CD8 T cells [1, 4]: approximately 11.2% | expression rate of NKp30 in CD8 T cells [1, 4]: approximately 60.5%

CC[C@H](C)n1cc(C)c2c(C(=O)NCc3c(C)cc(C)[nH]c3=O)cc(-c3ccc(N4CCNCC4)nc3)cc21 [GSK126]
expression of NKp46 and NKp30 in CD4 and CD8 among induced T cells compared with DMSO [1]: significantly expressed | induction of T cells to reprogram into NK-like cells [1]: can induce the T cells to reprogram into NK-like cells | in vitro killing of K562 by induced T cells [2]: effectively kill

CCc1c(C#N)c(SC(C(N)=O)c2ccccc2)nc(N(C)C)c1C#N (stereo not drawn) [GSK-3484862]
expression rate of NKp46 in CD4 T cells [1, 4]: approximately 5.16% | expression rate of NKp30 in CD4 T cells ([1]; T cells induced until Day6): approximately 81.4% | expression rate of NKp46 in CD8 T cells [1, 4]: approximately 21.4% | expression rate of NKp30 in CD8 T cells [1, 4]: approximately 50.8% | expression of NKp46 and NKp30 in CD4 and CD8 among induced T cells compared with DMSO [1]: significantly expressed | induction of T cells to reprogram into NK-like cells [1]: can induce the T cells to reprogram into NK-like cells | in vitro killing of K562 by induced T cells [2]: effectively kill | IFN-γ and granzyme B secreted by induced T cells (immune effect) [3]: produce an immune effect

Nc1ccccc1NC(=O)c1ccc(CNc2nccc(-c3cccnc3)n2)cc1 [Mocetinostat]
in vitro killing of K562 by induced T cells [2]: effectively kill
